Results as given in ChEMBL document CHEMBL4419178, “Yap1 inhibitors that target the interaction of yap1 with oct4” (2018).
The source made the active and inactive calls. The rule behind the calls is not given here.

Key:
[1] = biological target: Transcriptional coactivator YAP1 (Homo sapiens) (UniProt P46937); assay: Inhibition of YAP1 in human NCI-H1650 cells assessed as reduction in c-Myc protein expression at 10 uM incubated for 72 hrs by Western blot analysis; type: cell-based
[2] = biological target: Transcriptional coactivator YAP1 (Homo sapiens) (UniProt P46937); assay: Inhibition of YAP1 in human A549 cells assessed as reduction in c-Myc protein expression at 10 uM incubated for 72 hrs by Western blot analysis; type: cell-based
[3] = biological target: Transcriptional coactivator YAP1 (Homo sapiens) (UniProt P46937); assay: Inhibition of YAP1 in human A549 cells assessed as reduction in PDK2 protein expression at 10 uM incubated for 72 hrs by Western blot analysis; type: cell-based
[4] = biological target: Transcriptional coactivator YAP1 (Homo sapiens) (UniProt P46937); assay: Inhibition of YAP1 in human A549 cells assessed as reduction in Sox2 protein expression at 10 uM incubated for 72 hrs by Western blot analysis; type: cell-based
[5] = biological target: Transcriptional coactivator YAP1 (Homo sapiens) (UniProt P46937); assay: Inhibition of YAP1 in human NCI-H1650 cells assessed as reduction in Sox2 protein expression at 10 uM incubated for 72 hrs by Western blot analysis; type: cell-based
[6] = biological target: Transcriptional coactivator YAP1 (Homo sapiens) (UniProt P46937); assay: Inhibition of YAP1 in human NCI-H1650 cells assessed as reduction in PDK2 protein expression at 10 uM incubated for 72 hrs by Western blot analysis; type: cell-based
[7] = test system: NCI-H1650; assay: Inhibition of adherence-independent cell growth in human NCI-H1650 cells at 5 uM incubated for 33 days; type: functional, cell-based
[8] = test system: NCI-H1703; assay: Inhibition of adherence-independent cell growth in human NCI-H1703 cells at 10 uM incubated for 33 days; type: functional, cell-based
[9] = test system: NCI-H1650; assay: Inhibition of adherence-independent cell growth in human NCI-H1650 cells at 10 uM incubated for 33 days; type: functional, cell-based
[10] = test system: NCI-H1703; assay: Inhibition of adherence-independent cell growth in human NCI-H1703 cells at 5 uM incubated for 33 days; type: functional, cell-based
[11] = test system: NCI-H2286; assay: Cytotoxicity in human NCI-H2286 cells assessed as reduction in cell viability at 5 to 50 uM incubated for 96 hrs by MTT assay; type: functional, cell-based
[12] = test system: NCI-H1650; assay: Cytotoxicity in human NCI-H1650 cells assessed as reduction in cell viability at 20 to 50 uM incubated for 72 hrs by MTT assay; type: functional, cell-based
[13] = Cytotoxicity in human cancer associated fibroblasts at 20 to 50 uM incubated for 24 to 48 hrs by cytotracker-red/green dye staining based immunofluorescence microscopy
[14] = test system: NCI-H1650; assay: Cytotoxicity in human NCI-H1650 cells assessed as induction of cell killing in presence of cancer associated fibroblasts at 20 to 50 uM incubated for 24 to 48 hrs by cytotracker-red/green dye staining based immunofluorescence microscopy; type: functional
[15] = test system: NCI-H1650; assay: Cytotoxicity in human NCI-H1650 cells assessed as reduction in cell viability at 1 to 20 uM incubated for 72 hrs by MTT assay; type: functional, cell-based
[16] = biological target: Transcriptional coactivator YAP1 (Homo sapiens) (UniProt P46937); assay: Inhibition of YAP1 (unknown origin) assessed as disruption in YAP1/OCT4 interaction at 10 uM by ELISA relative to control
[17] = test system: A549; assay: Cytotoxicity in human A549 cells assessed as reduction in cell viability at 1 to 20 uM incubated for 72 hrs by MTT assay; type: functional, cell-based
[18] = test system: NCI-H2170; assay: Cytotoxicity in human NCI-H2170 cells assessed as reduction in cell viability at 5 to 50 uM incubated for 96 hrs by MTT assay; type: functional, cell-based
[19] = test system: NCI-H1650; assay: Cytotoxicity in human NCI-H1650 cells assessed as reduction in cell viability at 20 to 50 uM incubated for 24 hrs followed by medium replacement with RPMI medium with 10% FCS for 48 hrs by MTT assay; type: functional, cell-based
[20] = test system: NCI-H1650; assay: Inhibition of self-renewal capacity in stem-like side-population cells of human NCI-H1650 cells assessed as reduction in number of spheres at 5 to 50 uM incubated for 10 days by sphere formation assay; type: functional, cell-based
[21] = biological target: Transcriptional coactivator YAP1 (Homo sapiens) (UniProt P46937); assay: Inhibition of YAP1 (unknown origin) assessed as disruption in YAP1/OCT4 interaction at 50 uM by cell based assay
[22] = Lipophilicity, logP of the compound; type: physicochemical; conditions: octanol/water
[23] = biological target: Transcriptional coactivator YAP1 (Homo sapiens) (UniProt P46937); assay: Inhibition of YAP1 in human NCI-H1650 cells assessed as disruption in YAP1/OCT4 interaction at 20 to 50 uM incubated for 48 hrs by proximity ligation assay; type: cell-based
[24] = test system: NCI-H1650; assay: Inhibition of YAP1 in human NCI-H1650 cells assessed as disruption in YAP1/TEAD2 interaction at 20 to 50 uM incubated for 48 hrs by proximity ligation assay; type: cell-based

Sequence of Transcriptional coactivator YAP1 (Homo sapiens) (P46937 whole entry): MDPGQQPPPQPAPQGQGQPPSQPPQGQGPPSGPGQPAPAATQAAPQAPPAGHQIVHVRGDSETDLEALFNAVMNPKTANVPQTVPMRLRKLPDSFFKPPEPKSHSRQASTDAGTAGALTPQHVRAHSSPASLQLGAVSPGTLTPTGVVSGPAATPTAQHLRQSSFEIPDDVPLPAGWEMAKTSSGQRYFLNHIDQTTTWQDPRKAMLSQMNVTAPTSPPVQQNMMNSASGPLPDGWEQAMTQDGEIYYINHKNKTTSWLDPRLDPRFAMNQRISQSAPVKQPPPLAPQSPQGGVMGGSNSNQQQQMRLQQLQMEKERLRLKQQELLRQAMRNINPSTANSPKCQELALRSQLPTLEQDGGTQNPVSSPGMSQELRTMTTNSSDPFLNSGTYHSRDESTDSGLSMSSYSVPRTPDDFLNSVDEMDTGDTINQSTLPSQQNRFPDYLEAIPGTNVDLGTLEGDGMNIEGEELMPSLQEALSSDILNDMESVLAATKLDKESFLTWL

| Compound | inhibition [1] | inhibition [2] | inhibition [3] | inhibition [4] | inhibition [5] | inhibition [6] | Activity [11] | Activity [12] | Activity [13] | Activity [14] | Activity [15] | inhibition [16] [%] | Activity [17] | Activity [18] | Activity [19] | inhibition [20] | inhibition [21] [%] | also measured |
| --- | --- | --- | --- | --- | --- | --- | --- | --- | --- | --- | --- | --- | --- | --- | --- | --- | --- | --- |
| COC(=O)[C@H](Cc1ccc(OCc2ccccc2)cc1)NC(=O)CC1CCN(C(=O)Cc2ccc(NC(=O)OC(C)(C)C)cc2)CC1 | Active | Active | Active | Active | Active | Active |  |  |  |  |  |  |  |  |  |  |  |  |
| COC(=O)[C@H](Cc1ccc(OCc2ccccc2)cc1)NC(=O)CC1CCN(C(=O)c2ccc(NC(=O)OC(C)(C)C)cc2)CC1 | Active | Active | Active | Active | Active | Active |  |  |  |  |  |  |  |  |  |  |  | inhibition [7]: Active; inhibition [8]: Active; inhibition [9]: Active; inhibition [10]: Active |
| COC(=O)[C@H](Cc1ccc(OCc2ccccc2)cc1)NC(=O)CC1CCN(C(=O)Cc2ccccc2)CC1 |  |  |  |  |  |  | Active | Active | Non-Toxic | Active | Active | 80 | Active | Active | Active | Active | 82 |  |
| COC(=O)[C@H](Cc1ccc(OCc2ccccc2)cc1)NC(=O)CC1CCN(C(=O)CCc2ccccc2)CC1 |  |  |  |  |  |  | Active | Active | Non-Toxic | Active | Active | 90 | Active | Active | Active | Active | 90 | logP [22]: 4.7; inhibition [23]: Active; inhibition [24]: Active |
